Reference: US6218519A, “Compounds and methods for the selective treatment of cancer and bacterial infections” (Pro-Neuron, Inc., priority 1996, dated 2001)
Counter-ions that a name gives are not always drawn. Like-named read-outs stand apart in the source and are kept apart here.

Key:
[1] = system: A-375 (human melanoma); assay: Growth inhibition studies, crystal violet staining, 72 hr; assay type: cell-based; details: A-375, 72 h
From the text: Growth Inhibition Studies. […] cell lines: A-375 (human melanoma), LSl174T (colon carcinoma), ME 180 (cervical carcinoma), SK-OV-3 (ovarian carcinoma), and BT-474 (breast carcinoma) were routinely grown in […] Minimal Essential Medium (MEM, Gibco Inc.) containing 10% fetal bovine serum albumin (Atlanta Biologics). Cells were passaged weekly by trypsinization (Gibco) followed by plating at reduced density (50,000 cells/ml). They were routinely tested and found to be free of mycoplasma contamination. Cells were harvested by trypsinization and plated in 96 well plates at a density of 5,000 per well in 100 μl of MEM culture media. Cells were allowed to adhere by incubation for 24 hr at 37° C. in humidified 5% CO2. The wells containing log-phase cells were treated with complete MEM containing serial dilutions of N-[(4"RS-4"-Ethoxy-4"-β-D-glucopyranurongloxy)butyl]daunorubicin (sodium salt) 10b at concentrations ranging from 10^-5 to 10^-14 M Each well also contained a 50-fold unit excess of β-glucuronidase (i.e., 50 units of enzyme per βmole of substrate). Control reactions were run with 10b in the absence of β-glucuronidase, daunomycin alone, and daunomycin in the presence β-glucuronidase. […] Cell-bound dye was solubilized with Sorenson's Buffer (0.1 M sodium citrate, pH 4.2-ethanol, 1:1, v/v) and the wells were read on an ELISA microplate autoreader at 540 nm. […]

[2] = biological target: β-Glucuronidase (E. Coli) (EC 3. 2. 1. 31) (Escherichia coli, UniProt P05804); assay: in vitro; details: beta-glucuronidase, phosphate buffer, pH 7.4, half-life for the disappearance of 10b
[3] = system: carcinoma cells; details: glucuronide versus parent epirubicin; cited from earlier work

β-Glucuronidase (E. Coli) (EC 3. 2. 1. 31), sequence (P05804 whole entry): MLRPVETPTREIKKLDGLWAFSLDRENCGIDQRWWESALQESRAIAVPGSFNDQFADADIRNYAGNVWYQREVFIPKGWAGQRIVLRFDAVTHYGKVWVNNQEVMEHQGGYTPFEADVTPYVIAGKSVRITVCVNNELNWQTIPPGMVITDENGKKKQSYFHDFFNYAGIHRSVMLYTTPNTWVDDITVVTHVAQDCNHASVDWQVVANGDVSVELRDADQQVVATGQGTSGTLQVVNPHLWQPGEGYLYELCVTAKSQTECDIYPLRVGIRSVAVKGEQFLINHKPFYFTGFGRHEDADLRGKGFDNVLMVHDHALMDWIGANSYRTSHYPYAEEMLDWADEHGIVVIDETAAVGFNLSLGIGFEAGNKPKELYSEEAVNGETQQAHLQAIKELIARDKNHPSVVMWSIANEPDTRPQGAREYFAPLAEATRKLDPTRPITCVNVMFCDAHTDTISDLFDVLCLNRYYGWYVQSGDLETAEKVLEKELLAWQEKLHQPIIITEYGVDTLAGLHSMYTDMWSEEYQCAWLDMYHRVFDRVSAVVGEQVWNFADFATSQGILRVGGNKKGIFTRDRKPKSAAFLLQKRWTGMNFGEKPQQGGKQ

Row | Compound | IC50 ([1]; read-out: IC50 (drug concentration that inhibited cell growth by 50%), A375 cell line, in the absence of β-glucuronidase, 72 hr) | IC50 ([1]; read-out: IC50 (drug concentration that inhibited cell growth by 50%), A375 cell line, in the presence of glucuronidase (50 units of enzyme per µmole of substrate), 72 hr) | half-life at 100 µM [2] | half-life at 100 µM ([2]; 10-fold enzyme excess (10 units of enzyme per µmol of substrate), 0.05 M potassium phosphate buffer pH 7.4) | half-life at 100 µM ([2]; 20-fold enzyme excess (20 units of enzyme per µmol of substrate), 0.05 M potassium phosphate buffer pH 7.4) | detoxification of the parent drug [3]
1 | CCOC(CCCN[C@H]1C[C@H](O[C@H]2C[C@](O)(C(C)=O)Cc3c(O)c4c(c(O)c32)C(=O)c2c(OC)cccc2C4=O)O[C@@H](C)[C@H]1O)O[C@@H]1O[C@H](C(=O)O)[C@@H](O)[C@H](O)[C@H]1O (stereo partly drawn) [Compound 10b, N-[(4"RS)-4"-Ethoxy-4"-(β-D-glucopyranuronyloxy)butyl]daunorubicin (Sodium salt)] | 200 ng/mL | 0.02 ng/mL | 8.1 h | 6.9 h | 2 h | –
2 | COc1cccc2c1C(=O)c1c(O)c3c(c(O)c1C2=O)C[C@@](O)(C(=O)CO)C[C@@H]3O[C@H]1C[C@H](N)[C@@H](O[C@@H]2O[C@H](C(=O)O)[C@@H](O)[C@H](O)[C@H]2O)[C@H](C)O1 [glucuronide of epirubicin] | – | – | – | – | – | up to 1000 fold
